Patent US6608086B2, “Dihydropyridines and new uses thereof” (Synaptic Pharmaceutical Corporation, priority 1993, dated 2003)
Structures can show the parent of a compound that is named as a salt. Where two headings read alike, the source gives them in different places.

Columns and labels:
[1] = target: T1, α2B receptor (Homo sapiens, UniProt P18089); experiment: Competition binding, [3H]rauwolscine, human α2B receptor
T1 construct: host or cells: LM(tk-) cells, line L-NGC-α2B
T1 sequence (P18089 1-450): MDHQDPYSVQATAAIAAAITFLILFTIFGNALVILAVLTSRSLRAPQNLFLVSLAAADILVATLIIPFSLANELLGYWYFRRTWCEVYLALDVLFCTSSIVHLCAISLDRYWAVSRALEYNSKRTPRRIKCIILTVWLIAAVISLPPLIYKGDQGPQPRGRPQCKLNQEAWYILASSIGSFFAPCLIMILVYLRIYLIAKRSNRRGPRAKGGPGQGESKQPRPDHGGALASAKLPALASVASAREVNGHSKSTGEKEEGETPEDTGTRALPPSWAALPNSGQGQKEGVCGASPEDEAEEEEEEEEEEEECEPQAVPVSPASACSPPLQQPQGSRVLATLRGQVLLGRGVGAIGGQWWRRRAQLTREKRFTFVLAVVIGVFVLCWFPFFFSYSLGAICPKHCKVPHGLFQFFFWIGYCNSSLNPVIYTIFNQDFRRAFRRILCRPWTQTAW
Outline: (§1)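 Filter-bound [3H]rauwolscine (0.5 nM) was measured after equilibrium competition with test antagonists on lysates of LM(tk−) cells stably transfected with each human α2 subtype. Buffer: 25 mM glycylglycine, pH 7.6 at room temperature; 10 μM phentolamine gave nonspecific binding.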

[2] = target: T2, α1A Human Adrenergic Receptor (Homo sapiens, UniProt P25100); experiment: Radioligand binding, [3H]prazosin, cloned human α1A adrenergic receptor; details: pKi alpha-1 1a
T2 construct: The entire coding region of α1A (1719 bp); expressed in transfected cells
T2 sequence (P25100 1-572): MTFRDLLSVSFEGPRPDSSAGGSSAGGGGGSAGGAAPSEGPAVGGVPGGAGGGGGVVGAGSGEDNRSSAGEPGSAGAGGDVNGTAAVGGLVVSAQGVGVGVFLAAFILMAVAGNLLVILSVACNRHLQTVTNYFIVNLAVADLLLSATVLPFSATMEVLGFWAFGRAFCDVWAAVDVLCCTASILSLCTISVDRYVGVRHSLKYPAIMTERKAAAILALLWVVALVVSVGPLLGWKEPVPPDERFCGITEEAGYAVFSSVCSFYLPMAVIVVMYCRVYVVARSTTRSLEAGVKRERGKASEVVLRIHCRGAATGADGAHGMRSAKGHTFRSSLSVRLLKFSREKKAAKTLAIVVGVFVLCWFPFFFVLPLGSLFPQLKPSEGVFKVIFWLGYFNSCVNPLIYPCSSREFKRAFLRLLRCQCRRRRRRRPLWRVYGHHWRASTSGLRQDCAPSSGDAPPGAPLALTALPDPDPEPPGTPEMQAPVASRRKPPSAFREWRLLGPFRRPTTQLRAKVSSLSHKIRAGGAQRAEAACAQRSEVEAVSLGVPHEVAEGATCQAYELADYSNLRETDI
Outline: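 In pH 7.5 Tris/MgCl2/ascorbic acid buffer, α1A-expressing LM(tk−) membranes are exposed to 0.5 nM [3H]prazosin (37° C, 20 min). Excess phentolamine (10 μM) marks nonspecific binding before rapid filtration.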

[3] = target: T3, α2C receptor (Homo sapiens, UniProt P18825); experiment: Competition binding, [3H]rauwolscine, human α2C receptor
T3 construct: host or cells: LM(tk-) cells, line L-α2C
T3 sequence (P18825 1-462): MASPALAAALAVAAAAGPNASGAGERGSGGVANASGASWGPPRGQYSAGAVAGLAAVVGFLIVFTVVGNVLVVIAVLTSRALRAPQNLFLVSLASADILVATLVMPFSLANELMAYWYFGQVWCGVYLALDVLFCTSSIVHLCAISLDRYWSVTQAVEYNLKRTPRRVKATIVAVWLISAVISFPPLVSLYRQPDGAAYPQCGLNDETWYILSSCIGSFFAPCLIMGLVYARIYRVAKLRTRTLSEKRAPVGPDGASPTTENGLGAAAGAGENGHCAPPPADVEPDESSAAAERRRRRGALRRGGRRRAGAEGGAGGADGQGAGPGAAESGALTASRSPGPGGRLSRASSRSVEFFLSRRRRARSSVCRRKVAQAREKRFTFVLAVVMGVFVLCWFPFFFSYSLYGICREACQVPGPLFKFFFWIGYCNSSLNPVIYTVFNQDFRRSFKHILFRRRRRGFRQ
Outline: as §1

[4] = pKi alpha-2 2b, [3H]rauwolscine, LM(tk-) cell line L-NGC-α2B, SEM and n in lines below
[5] = [3H]prazosin, cloned human receptor in LM(tk-) cell membranes, SEM and n in lines below
[6] = [3H]rauwolscine, LM(tk-) cell line L-α2C, SEM and n in lines below, read-out: pKi alpha-2 2c (converted)
[7] = [3H]rauwolscine, LM(tk-) cell line L-NGC-α2B, SEM and n in lines below, read-out: pKi alpha-2 2b (converted)

## COC(=O)C1=C(C)NC(C)=C(C(=O)NCCCN2CCC(c3ccccc3)(c3ccccc3)CC2)C1c1ccc(F)cc1 (stereo not drawn) [Example 20, 4-(4-Fluorophenyl)-1,4-dihydro-3-methoxycarbonyl-2,6-dimethyl-5-(N-(3-(4,4-diphenylpiperidin-1-yl)propyl)carboxamido)pyridine]
[1]; pKi alpha-2 2b
  Ki: 1320 nM
[2]
  Ki: 1350 nM
[3]; pKi alpha-2 2c
  Ki: 813 nM

## COC(=O)C1=C(C)NC(C)=C(C(=O)NCCCN2CCC(c3ccccc3)(c3ccccc3)CC2)C1c1ccc(OC)cc1 (stereo not drawn) [Example 21, 1,4-Dihydro-3-methoxycarbonyl-4-(4-Methoxyphenyl)-2,6-dimethyl-5-(N-(3-(4,4-diphenylpiperidin-1-yl)propyl)carboxamido)pyridine]
[1]; pKi alpha-2 2b
  Ki: 1070 nM
[2]
  Ki: 490 nM
[3]; pKi alpha-2 2c
  Ki: 776 nM

## COC(=O)C1=C(C)NC(C)=C(C(=O)NCCCN2CCC(c3ccccc3)(c3ccccc3)CC2)C1c1ccc2ccccc2c1 (stereo not drawn) [Example 22]
[1]; pKi alpha-2 2b
  Ki: 912 nM
[2]
  Ki: 741 nM
[3]; pKi alpha-2 2c
  Ki: 631 nM

## COC(=O)C1=C(C)NC(C)=C(C(=O)NCCCN2CCC(c3ccccc3)(c3ccccc3)CC2)C1c1ccoc1 (stereo not drawn) [Example 23, 4-(3-Furyl)-1,4-dihydro-3-methoxycarbonyl-2,6-dimethyl-5-(N-(3-(4,4-diphenylpiperidin-1-yl)propyl)carboxamide)pyridine]
[1]; [4]
  Ki: 562 nM
[2]; [5]
  Ki: 646 nM
[3]; [6]
  Ki: 468 nM

## COC(=O)C1=C(C)NC(C)=C(C(=O)NCCCN2CCC(c3ccccc3)(c3ccccc3)CC2)C1c1ccc(Cl)c(Cl)c1 (stereo not drawn) [Example 24, 4-(3,4-Dichlorophenyl)-1,4-dihydro-3-methoxycarbonyl-2,6-dimethyl-5-(3-(D 44-diphenylpiperidin-1-yl)propylcarboxamido)pyridine]
[1]; pKi alpha-2 2b
  Ki: 1260 nM
[2]
  Ki: 324 nM
[3]; pKi alpha-2 2c
  Ki: 158 nM

## COC(=O)C1=C(C)NC(C)=C(C(=O)NCCCN2CCC(c3ccccc3)(c3ccccc3)CC2)C1c1ccc(C(=O)OC)cc1 (stereo not drawn) [Example 25, 1,4-Dihydro-3-methoxycarbonyl-4-(4-methoxycarbonylphenyl)-2,6-dimethyl-5-(N-(3-(4,4-diphenylpiperidin-1-yl)propyl)carboxamide)pyridine]
[1]; pKi alpha-2 2b
  Ki: 501 nM
[2]
  Ki: 646 nM
[3]; pKi alpha-2 2c
  Ki: 1020 nM

## COC(=O)C1=C(C)NC(C)=C(C(=O)NCCCN2CCC(c3ccccc3)(c3ccccc3)CC2)C1c1ccc(OC)c(OC)c1 (stereo not drawn) [Example 26]
[1]; pKi alpha-2 2b
  Ki: 977 nM
[2]
  Ki: 525 nM
[3]; pKi alpha-2 2c
  Ki: 1480 nM

## COC(=O)C1=C(C)NC(C)=C(C(=O)NCCCN2CCC(c3ccccc3)(c3ccccc3)CC2)C1c1cc(OC)c(OC)c(OC)c1 (stereo not drawn) [Example 27]
[1]; pKi alpha-2 2b
  Ki: 1050 nM
[2]
  Ki: 380 nM
[3]; pKi alpha-2 2c
  Ki: 1200 nM

## COC(=O)C1=C(C)NC(C)=C(C(=O)NCCCN2CCC(c3ccccc3)(c3ccccc3)CC2)C1c1ccc([N+](=O)[O-])c(C)c1 (stereo not drawn) [Example 28]
[1]; [7]
  Ki: 1660 nM
[2]; [5]
  Ki: 437 nM
[3]; [6]
  Ki: 631 nM

## COC(=O)C1=C(C)NC(C)=C(C(=O)NCCCN2CCC(c3ccccc3)(c3ccccc3)CC2)C1c1ccc([N+](=O)[O-])c(OC)c1 (stereo not drawn) [Example 29, 1,4-Dihydro-3-methoxycarbonyl-4-(3-methoxy-4-nitrophenyl)-2,6-dimethyl-5-(N-(3-(4,4-diphenylpiperidin-1-yl)propyl)carboxamido)pyridine]
[1]; [7]
  Ki: 631 nM
[2]; [5]
  Ki: 263 nM
[3]; [6]
  Ki: 398 nM

## CC1=C(C#N)C(c2ccc([N+](=O)[O-])cc2)C(C(=O)NCCCN2CCC(c3ccccc3)(c3ccccc3)CC2)=C(C)N1 (stereo not drawn) [Example 37]
[1]; pKi alpha-2 2b
  Ki: 1070 nM
[2]
  Ki: 692 nM
[3]; pKi alpha-2 2c
  Ki: 575 nM

## CC1=C(C(=O)NCCCN2CCC(c3ccccc3)(c3ccccc3)CC2)C(c2ccc([N+](=O)[O-])cc2)C2=C(CCCC2=O)N1 (stereo not drawn) [Example 40, 1,4,5,6,7,8-Hexahydro-2-methyl-4-(4-nitrophenyl)-5-oxo-3-{N-[3-(4,4-diphenylpiperidin-1-yl)propyl]}carboxamidoquinoline]
[1]; [4]
  Ki: 1780 nM
[2]; [5]
  Ki: 550 nM
[3]; [6]
  Ki: 977 nM

## CCC1=C(C(N)=O)C(c2ccc([N+](=O)[O-])cc2)C(C(=O)NCCCN2CCC(c3ccccc3)(c3ccccc3)CC2)=C(C)N1 (stereo not drawn) [Example 41, 3-Carboxamido-2-ethyl-1,4-dihydro-6-methyl-4-(4-nitrophenyl)-3-{N-[3-(4,4-diphenylpiperidin-1-yl)propyl]}carboxamidopyridine]
[1]; [4]
  Ki: 603 nM
[2]; [5]
  Ki: 501 nM
[3]; [6]
  Ki: 437 nM

## CCC1=C(C(N)=O)C(c2ccc([N+](=O)[O-])cc2)C(C(=O)NCCCN2CCC(c3ccccc3)(c3ccccc3)CC2)=C(CC)N1 (stereo not drawn) [Example 42, 5-carboxamido-2,6-diethyl-1,4-dihydro-4-(4-nitrophenyl)-3-{N-[3-(4,4-diphenylpiperidin-1-yl)propyl]}carboxamidopyridine]
[1]; [4]
  Ki: 229 nM
[2]; [5]
  Ki: 447 nM
[3]; pKi alpha-2 2c, [3H]rauwolscine, LM(tk-) cell line L-α2C, SEM and n in lines below
  Ki: 170 nM

## COC(=O)C1=C(C)NC(c2ccoc2)=C(C(=O)NCCCN2CCC(c3ccccc3)(c3ccccc3)CC2)C1c1ccc([N+](=O)[O-])cc1 (stereo not drawn) [Example 43, 2-(Furan-3-yl)-, 4-dihydro-5-methoxycarbonyl-6-methyl-4-(4-nitrophenyl)-3-(N-(3-(4,4-diphenylpiperidin-1-yl)propyl)carboxamidopyridine, hydrochloride salt]
[1]; [4]
  Ki: 437 nM
[2]; [5]
  Ki: 316 nM
[3]; [6]
  Ki: 398 nM

## COC(=O)C1=C(C)NC(C)=C(C(=O)N(C)CCCN2CCC(c3ccccc3)(c3ccccc3)CC2)C1c1ccc([N+](=O)[O-])cc1 (stereo not drawn) [Example 46, hydrochloride hemihydrate]
[1]; pKi alpha-2 2b
  Ki: 490 nM
[2]
  Ki: 501 nM
[3]; pKi alpha-2 2c
  Ki: 245 nM

## COC(=O)C1=C(C)NC(C)=C(C(=O)NCCN2CCC(c3ccccc3)(c3ccccc3)CC2)C1c1ccc([N+](=O)[O-])cc1 (stereo not drawn) [Example 52, 1,4-Dihydro-3-methoxycarbonyl-2,6-dimethyl-4-(4-nitrophenyl)-5-{N-[2-(4,4-diphenylpiperidin-1-yl)ethyl]}carboxamidopyridine hydrochloride hemihydrate]
[1]; pKi alpha-2 2b
  Ki: 794 nM
[2]
  Ki: 1150 nM
[3]; pKi alpha-2 2c
  Ki: 263 nM

## CC1=C(C(N)=O)C(c2ccc([N+](=O)[O-])cc2)C(C(=O)NCCN2CCC(c3ccccc3)(c3ccccc3)CC2)=C(C)N1 (stereo not drawn) [Example 54, 5-Carboxamide-1,4-dihydro-2,6-dimethyl-4-(4-nitrophenyl)-3-{N-[2-(4,4-diphenylpiperidin-1-yl)ethyl]}carboxamidopyridine hydrochloride hydrate]
[1]; [4]
  Ki: 302 nM
[2]; [5]
  Ki: 347 nM
[3]; [6]
  Ki: 158 nM

## CC1=C(C(N)=O)C(c2cccc([N+](=O)[O-])c2)C(C(=O)NCCCN2CCC(c3ccccc3)(c3ccccc3)CC2)=C(C)N1 (stereo not drawn) [Example 61, 5-Carboxamido-1,4-dihydro-2,6-dimethyl-4-(3-nitrophenyl)-3-{N-[3-(4,4-diphenylpiperidin-1-yl)propyl]}carboxamidopyridine]
[1]; [7]
  Ki: 603 nM
[2]; [5]
  Ki: 851 nM
[3]; [6]
  Ki: 479 nM
